Columns and labels:
[1] = volume of water for 1 g; cited from earlier work
[2] = Franz skin diffusion cell permeation (percutaneous absorption) under ambient, natural or pulsed incoherent LED light; settings: for Permeation Dark: ambient light absent; for Ctrl: ambient light only; for Permeation Ctrl: ambient cool fluorescent light only, 260-750 nm, 120 cps; for Permeation Ctrl-TiO2: ambient fluorescent light, sample with 2% (w/w) rutile TiO2; for Ctrl-TiO2 / Effect of 2% (w/w) TiO2 on permeation: ambient light; for Ctrl-TiO2: 2% TiO2; for Ctrl-TiO2/1.7: 2% TiO2, 1.7 cps; for Ctrl-TiO2/9.7: 2% TiO2, 9.7 cps; for Ctrl-TiO2/24: 2% TiO2, 24 cps; for Effect of 2% (w/w) TiO2 on permeation: FIG. 4; for Permeation 350 / Permeation 405: 75% duty cycle

Compound: Cn1c(=O)c2[nH]cnc2n(C)c1=O [Compound 8, Theophylline]
- Water Solubility (1 g) [1]: 120 mL

Compound: CC(C)[C@H](N)C(=O)N[C@@H](Cc1ccc(O)cc1)C(=O)N[C@H](C(=O)O)C(C)C [Compound 12, Val-Tyr-Val]
- % Permeation (percent increase or decrease vs dark baseline, equation 1) ([2]; 350 + TiO2, 24 cps vs Dark-TiO2): 66.64%
- % Permeation (percent increase or decrease vs dark baseline, equation 1) ([2]; 350 + TiO2, 80 cps vs Dark-TiO2): 65.49%
- Permeation ([2]; 350 + TiO2, pulse rate 24 cps): 18.98 μg/cm^2/24 hrs
- Permeation ([2]; 350 + TiO2, pulse rate 80 cps): 16.45 μg/cm^2/24 hrs
- Permeation ([2]; 350 nm LED, pulse rate 24 cps): 22.69 μg/cm^2/24 hrs
- Permeation ([2]; 350 nm LED, pulse rate 80 cps): 17.41 μg/cm^2/24 hrs
- % Permeation (percent increase or decrease vs dark baseline, equation 1) ([2]; 350 nm, 24 cps vs Dark): 50.96%
- % Permeation (percent increase or decrease vs dark baseline, equation 1) ([2]; 350 nm, 80 cps vs Dark): 94.09%
- % Permeation (percent increase or decrease vs dark baseline, equation 1) ([2]; 390 + TiO2, 24 cps vs Dark-TiO2): 11.76%
- % Permeation (percent increase or decrease vs dark baseline, equation 1) ([2]; 390 + TiO2, 80 cps vs Dark-TiO2): 95.88%
- Permeation ([2]; 390 + TiO2, pulse rate 24 cps): 12.73 μg/cm^2/24 hrs
- Permeation ([2]; 390 + TiO2, pulse rate 80 cps): 19.47 μg/cm^2/24 hrs
- Permeation ([2]; 390 nm LED, pulse rate 24 cps): 21.47 μg/cm^2/24 hrs
- Permeation ([2]; 390 nm LED, pulse rate 80 cps): 18.70 μg/cm^2/24 hrs
- % Permeation (percent increase or decrease vs dark baseline, equation 1) ([2]; 390 nm, 24 cps vs Dark): 42.85%
- % Permeation (percent increase or decrease vs dark baseline, equation 1) ([2]; 390 nm, 80 cps vs Dark): 108.47%
- % Permeation (percent increase or decrease vs dark baseline, equation 1) ([2]; 405 + TiO2, 24 cps vs Dark-TiO2): −44.16%
- % Permeation (percent increase or decrease vs dark baseline, equation 1) ([2]; 405 + TiO2, 80 cps vs Dark-TiO2): 101.11%
- Permeation ([2]; 405 + TiO2, pulse rate 24 cps): 6.36 μg/cm^2/24 hrs
- Permeation ([2]; 405 + TiO2, pulse rate 80 cps): 19.99 μg/cm^2/24 hrs
- Permeation ([2]; 405 nm LED, pulse rate 24 cps): 12.32 μg/cm^2/24 hrs
- Permeation ([2]; 405 nm LED, pulse rate 80 cps): 19.89 μg/cm^2/24 hrs
- % Permeation (percent increase or decrease vs dark baseline, equation 1) ([2]; 405 nm, 24 cps vs Dark): −18.03%
- % Permeation (percent increase or decrease vs dark baseline, equation 1) ([2]; 405 nm, 80 cps vs Dark): 121.74%
- % Permeation (percent increase or decrease vs dark baseline, equation 1) ([2]; 450 + TiO2, 24 cps vs Dark-TiO2): −33.98%
- % Permeation (percent increase or decrease vs dark baseline, equation 1) ([2]; 450 + TiO2, 80 cps vs Dark-TiO2): 48.29%
- Permeation ([2]; 450 + TiO2, pulse rate 24 cps): 7.52 μg/cm^2/24 hrs
- Permeation ([2]; 450 + TiO2, pulse rate 80 cps): 14.74 μg/cm^2/24 hrs
- Permeation ([2]; 450 nm LED, pulse rate 24 cps): 9.51 μg/cm^2/24 hrs
- Permeation ([2]; 450 nm LED, pulse rate 80 cps): 17.39 μg/cm^2/24 hrs
- % Permeation (percent increase or decrease vs dark baseline, equation 1) ([2]; 450 nm, 24 cps vs Dark): −36.73%
- % Permeation (percent increase or decrease vs dark baseline, equation 1) ([2]; 450 nm, 80 cps vs Dark): 93.87%
- Permeation Dark ([2]; Dark control): 37.24 μg/0.64 cm^2/25 hrs
- Permeation ([2]; Dark control, 24 cps series): 15.03 μg/cm^2/24 hrs
- Permeation ([2]; Dark control, 80 cps series): 8.97 μg/cm^2/24 hrs
- Permeation ([2]; Dark-TiO2 control (2% TiO2), 24 cps series): 11.39 μg/cm^2/24 hrs
- Permeation ([2]; Dark-TiO2 control (2% TiO2), 80 cps series): 9.94 μg/cm^2/24 hrs
- Permeation ([2]; Day (natural daylight, not pulsed), control of the 24 cps series): 8.27 μg/cm^2/24 hrs
- Permeation ([2]; Day (natural daylight, not pulsed), control of the 80 cps series): 11.32 μg/cm^2/24 hrs
- % Permeation (percent increase or decrease vs dark baseline, equation 1) ([2]; Day vs Dark, 24 cps series): −44.98%
- % Permeation (percent increase or decrease vs dark baseline, equation 1) ([2]; Day vs Dark, 80 cps series): 26.20%
- Permeation ([2]; Day-TiO2 (natural daylight, 2% TiO2, not pulsed), control of the 24 cps series): 11.11 μg/cm^2/24 hrs
- Permeation ([2]; Day-TiO2 (natural daylight, 2% TiO2, not pulsed), control of the 80 cps series): 13.64 μg/cm^2/24 hrs
- % Permeation (percent increase or decrease vs dark baseline, equation 1) ([2]; Day-TiO2 vs Dark-TiO2, 24 cps series): −2.55%
- % Permeation (percent increase or decrease vs dark baseline, equation 1) ([2]; Day-TiO2 vs Dark-TiO2, 80 cps series): 37.22%
- 405/1.7 ([2]; Table 10, 405 nm, 1.7 cps): 23.21
- 405/9.7 ([2]; Table 10, 405 nm, 9.7 cps): 91.68
- 405/24 ([2]; Table 10, 405 nm, 24 cps): 48.83
- Ctrl ([2]; Table 10 peptides): 35.26
- Permeation Ctrl [2]: 35.26 μg/0.64 cm^2/25 hrs
- Permeation Ctrl-TiO2 [2]: 41.18 μg/0.64 cm^2/25 hrs

Compound: Cc1ncc(CO)c(CO)c1O [Compound 5, Pyridoxine]
- Permeation Dark ([2]; Dark control): 261.30 μg/0.64 cm^2/25 hrs
- Ctrl ([2]; Table 8 (405 nm series)): 32.90
- Ctrl-TiO2 ([2]; Table 8 (405 nm series)): 806.25
- Ctrl-TiO2/1.7 ([2]; Table 8, 405 nm series): 537.60
- Ctrl-TiO2/9.7 ([2]; Table 8, 405 nm series): 862.75
- Ctrl-TiO2/24 ([2]; Table 8, 405 nm series): 0.00
- 405/1.7 ([2]; Table 8, 405 nm, 1.7 cps): 179.38
- 405/9.7 ([2]; Table 8, 405 nm, 9.7 cps): 0.00
- 405/24 ([2]; Table 8, 405 nm, 24 cps): 187.81
- Permeation Ctrl [2]: 32.90 μg/0.64 cm^2/25 hrs
- Permeation Ctrl-TiO2 [2]: 806.20 μg/0.64 cm^2/25 hrs
- Effect of 2% (w/w) TiO2 on permeation [2]: significant effect
- Water Solubility (1 g) [1]: 4.5 mL

Compound: C[C@]12CCC(=O)C=C1CC[C@@H]1[C@@H]2CC[C@@]2(C)[C@H]1CC[C@]2(C)O [Compound 17, Methyl Testosterone]
- Permeation 350 ([2]; 350 nm LED, pulse rate 24 cps): 153.25 μg/0.64 cm^2/25 hrs
- Permeation 1.7 cps ([2]; 350 nm, 1.7 cps): 12.84 μg/0.64 cm^2/25 hrs
- Permeation 9.7 cps ([2]; 350 nm, 9.7 cps): 29.57 μg/0.64 cm^2/25 hrs
- Permeation 405 ([2]; 405 nm LED, pulse rate 24 cps): 25.37 μg/0.64 cm^2/25 hrs
- Permeation Dark ([2]; Dark control): 0.00 μg/0.64 cm^2/25 hrs
- Permeation Ctrl [2]: 0.00 μg/0.64 cm^2/25 hrs
- Permeation Ctrl-TiO2 [2]: 0.00 μg/0.64 cm^2/25 hrs
- Water Solubility (1 g) [1]: Insoluble

Compound: Cn1cnc2c1c(=O)[nH]c(=O)n2C [Compound 7, Theobromine]
- Water Solubility (1 g) [1]: 2000 mL

Compound: O=C(O)c1cccnc1 [Compound 6, Nicotinic acid]
- Permeation Dark ([2]; Dark control): 976.30 μg/0.64 cm^2/25 hrs
- Ctrl ([2]; Table 8 (405 nm series)): 0.00
- Ctrl-TiO2 ([2]; Table 8 (405 nm series)): 1371.00
- Permeation Ctrl [2]: 0.00 μg/0.64 cm^2/25 hrs
- Permeation Ctrl-TiO2 [2]: 1371.00 μg/0.64 cm^2/25 hrs
- Effect of 2% (w/w) TiO2 on permeation [2]: significant effect
- Water Solubility (1 g) [1]: 60 mL

Compound: CC[C@H](C)[C@H](NC(=O)[C@H](Cc1ccc(O)cc1)NC(=O)[C@@H](NC(=O)[C@H](CCCNC(=N)N)NC(=O)[C@@H](N)CC(=O)O)C(C)C)C(=O)N[C@@H](Cc1cnc[nH]1)C(=O)N1CCC[C@H]1C(=O)N[C@@H](Cc1ccccc1)C(=O)O [Compound 15]
- Permeation Dark ([2]; Dark control): 42.80 μg/0.64 cm^2/25 hrs
- 405/1.7 ([2]; Table 10, 405 nm, 1.7 cps): 19.99
- 405/9.7 ([2]; Table 10, 405 nm, 9.7 cps): 73.19
- 405/24 ([2]; Table 10, 405 nm, 24 cps): 3.87
- Ctrl ([2]; Table 10 peptides): 0.00
- Permeation Ctrl [2]: 0.00 μg/0.64 cm^2/25 hrs
- Permeation Ctrl-TiO2 [2]: 0.00 μg/0.64 cm^2/25 hrs

Compound: NC(=O)c1cccnc1 [Compound 10, Nicotinamide]
- Permeation Dark ([2]; Dark control): 543.70 μg/0.64 cm^2/25 hrs
- Ctrl ([2]; Table 8 (405 nm series)): 42.72
- Ctrl-TiO2 ([2]; Table 8 (405 nm series)): 851.83
- Ctrl-TiO2/1.7 ([2]; Table 8, 405 nm series): 668.31
- Ctrl-TiO2/9.7 ([2]; Table 8, 405 nm series): 1387.33
- Ctrl-TiO2/24 ([2]; Table 8, 405 nm series): 0.00
- 405/1.7 ([2]; Table 8, 405 nm, 1.7 cps): 26.22
- 405/9.7 ([2]; Table 8, 405 nm, 9.7 cps): 32.69
- 405/24 ([2]; Table 8, 405 nm, 24 cps): 0.00
- Permeation Ctrl [2]: 42.72 μg/0.64 cm^2/25 hrs
- Permeation Ctrl-TiO2 [2]: 851.80 μg/0.64 cm^2/25 hrs
- Effect of 2% (w/w) TiO2 on permeation [2]: significant effect
- Water Solubility (1 g) [1]: 1 mL

Compound: Cn1c(=O)c2c(ncn2C)n(C)c1=O [Compound 9, Caffeine]
- Permeation Dark ([2]; Dark control): 269.40 μg/0.64 cm^2/25 hrs
- Permeation Ctrl [2]: 168.70 μg/0.64 cm^2/25 hrs
- Permeation Ctrl-TiO2 [2]: 47.22 μg/0.64 cm^2/25 hrs

Compound: CCCCCCCCCCCCCCCC(=O)OC[C@H](O)[C@H]1OC(=O)C(O)=C1O [Compound 4, Ascorbyl palmitate]
- Permeation Dark ([2]; Dark control): 0.00 μg/0.64 cm^2/25 hrs
- Ctrl ([2]; Table 7 (350 nm series)): 263.48
- Ctrl-TiO2 ([2]; Table 7 (350 nm series)): 260.00
- Ctrl-TiO2/1.7 ([2]; Table 7, 350 nm series): 289.57
- Ctrl-TiO2/9.7 ([2]; Table 7, 350 nm series): 312.06
- Ctrl-TiO2/24 ([2]; Table 7, 350 nm series): 180.88
- 350/1.7 ([2]; Table 7, 350 nm, 1.7 cps): 160.87
- 350/9.7 ([2]; Table 7, 350 nm, 9.7 cps): 0.00
- 350/24 ([2]; Table 7, 350 nm, 24 cps): 151.00

Compound: CC(=O)[C@H]1CC[C@H]2[C@@H]3CCC4=CC(=O)CC[C@]4(C)[C@H]3CC[C@]12C [Compound 18, Progesterone]
- Permeation 350 ([2]; 350 nm LED, pulse rate 24 cps): 149.91 μg/0.64 cm^2/25 hrs
- Permeation 1.7 cps ([2]; 350 nm, 1.7 cps): 2.58 μg/0.64 cm^2/25 hrs
- Permeation 9.7 cps ([2]; 350 nm, 9.7 cps): 2.80 μg/0.64 cm^2/25 hrs
- Permeation 405 ([2]; 405 nm LED, pulse rate 24 cps): 6.19 μg/0.64 cm^2/25 hrs
- Permeation Dark ([2]; Dark control): 0.00 μg/0.64 cm^2/25 hrs
- Permeation Ctrl [2]: 0.00 μg/0.64 cm^2/25 hrs
- Permeation Ctrl-TiO2 [2]: 0.00 μg/0.64 cm^2/25 hrs
- Water Solubility (1 g) [1]: Insoluble
